These results are taken from patent US11673889B2, “Substituted imidazo[4,5-c][1,8]naphthyridines as phosphodiesterase inhibitors” (Nanjing Zhengxiang Pharmaceuticals Co., Ltd., priority 2019, dated 2023).

As usually defined, the pIC50 is the negative decadic logarithm of the IC50, by convention in mol/L. The inhibition is the drop in the measured response relative to a control, in per cent.

Molecules are shown by their SMILES. pIC50: −log10 of the molar value. Bounds are passed on as bounds.

Assay [1] concerns the target T1, human soluble ENPP1 (Homo sapiens, UniProt P22413).
T1 construct: 20 ng of human soluble ENPP1
T1 sequence (P22413 103-925 limits assumed): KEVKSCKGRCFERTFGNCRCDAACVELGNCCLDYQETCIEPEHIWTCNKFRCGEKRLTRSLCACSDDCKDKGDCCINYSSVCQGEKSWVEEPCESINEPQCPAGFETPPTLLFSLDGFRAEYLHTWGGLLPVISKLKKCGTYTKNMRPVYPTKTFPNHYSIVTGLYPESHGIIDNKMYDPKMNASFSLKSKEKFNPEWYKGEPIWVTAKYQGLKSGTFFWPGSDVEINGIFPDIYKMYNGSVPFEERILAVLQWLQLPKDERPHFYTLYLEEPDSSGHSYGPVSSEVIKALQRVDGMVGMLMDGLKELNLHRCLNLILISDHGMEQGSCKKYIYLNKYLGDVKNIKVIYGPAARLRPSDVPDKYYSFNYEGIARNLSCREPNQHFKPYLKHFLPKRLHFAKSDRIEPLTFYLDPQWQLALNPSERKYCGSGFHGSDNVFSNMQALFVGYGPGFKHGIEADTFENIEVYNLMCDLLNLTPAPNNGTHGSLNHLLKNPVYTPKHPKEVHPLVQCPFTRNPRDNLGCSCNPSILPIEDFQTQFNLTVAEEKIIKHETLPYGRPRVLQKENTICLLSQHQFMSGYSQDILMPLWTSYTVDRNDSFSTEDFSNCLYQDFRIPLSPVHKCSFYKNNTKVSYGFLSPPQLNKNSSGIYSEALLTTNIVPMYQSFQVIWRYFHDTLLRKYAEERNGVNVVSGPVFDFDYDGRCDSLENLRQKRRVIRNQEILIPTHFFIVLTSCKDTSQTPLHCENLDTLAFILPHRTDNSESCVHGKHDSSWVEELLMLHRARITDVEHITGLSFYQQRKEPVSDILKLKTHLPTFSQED
As to the kind of experiment: ENPP1 activity assay using p-Nitrophenyl-5′-TMP as a substrate. Type of assay: biochemical. On the procedure:
ENPP1 is a transmembrane glycoprotein that hydrolyzes nucleotides and nucleotide derivatives with the formation of nucleotide-5′-monophosphates. ENPP1 hydrolyzes artificial phosphoric acid ester thymidine 5′monophosphate p-nitrophenyl ester (TMP-pNP) to nucleotide-5′-monophosphate and p-nitrophenol, which is a chromogenic product.
Load into a well with 20 ng of human soluble ENPP1 in 50 μL and incubate at room temperature with 25 μL inhibitor solution (4× Final Concentration) for 30 mins. Then, add 25 μL 2 mM TMP solution (2× Final Concentration) into the well, Incubate at RT for 1 hour.
(§1) The percent inhibition at each compound is calculated as follows: % inhibition=(ODMAX−ODCOMPOUND)/(ODMAX−ODMIN)*100. (MAX: absence of ENPP1 inhibitors control, MIN: blank control.)
The IC50 values for percent inhibition versus compound concentration were determined by fitting the inhibition curves using a four-parameter variable slope model in GraphPad Prism® 8.

Assay [2] has as its target T1, human soluble ENPP1. As to the kind of experiment: ENPP1 activity assay using p-Nitrophenyl-5′-AMP as a substrate. The format is biochemical. As for the experimental part: AMP-pNP can be used as substrate of ENPP-1. Its hydrolysis products were nucleotide-5′-monophosphate and p-nitrophcnol, which is also a chromogenic product. The amount of p-nitrophenol product formed is measured using its absorbance at 405 nm, which is directly proportional to enzyme activity.
Load into a well with […] of human soluble ENPP1 in 50 μL and incubate at room temperature with 25 μL inhibitor solution (4× Final Concentration) for 30 mins prior adding 25 μL 3 mM AMP solution (2× Final Concentration) into the well, Incubate at RT for 1 hour. The amounts of released p-nitrophenolate were measured by reading OD value at 405 nm.
as §1
(§2) The IC50 values for percent inhibition versus compound concentration are determined by fitting the inhibition curves using a four-parameter variable slope model in GraphPad Prism® 8.

In a further assay the target is T2, ENPP-1, MDA-MB-231 cells (Homo sapiens, UniProt P22413).
T2 sequence (P22413 1-925): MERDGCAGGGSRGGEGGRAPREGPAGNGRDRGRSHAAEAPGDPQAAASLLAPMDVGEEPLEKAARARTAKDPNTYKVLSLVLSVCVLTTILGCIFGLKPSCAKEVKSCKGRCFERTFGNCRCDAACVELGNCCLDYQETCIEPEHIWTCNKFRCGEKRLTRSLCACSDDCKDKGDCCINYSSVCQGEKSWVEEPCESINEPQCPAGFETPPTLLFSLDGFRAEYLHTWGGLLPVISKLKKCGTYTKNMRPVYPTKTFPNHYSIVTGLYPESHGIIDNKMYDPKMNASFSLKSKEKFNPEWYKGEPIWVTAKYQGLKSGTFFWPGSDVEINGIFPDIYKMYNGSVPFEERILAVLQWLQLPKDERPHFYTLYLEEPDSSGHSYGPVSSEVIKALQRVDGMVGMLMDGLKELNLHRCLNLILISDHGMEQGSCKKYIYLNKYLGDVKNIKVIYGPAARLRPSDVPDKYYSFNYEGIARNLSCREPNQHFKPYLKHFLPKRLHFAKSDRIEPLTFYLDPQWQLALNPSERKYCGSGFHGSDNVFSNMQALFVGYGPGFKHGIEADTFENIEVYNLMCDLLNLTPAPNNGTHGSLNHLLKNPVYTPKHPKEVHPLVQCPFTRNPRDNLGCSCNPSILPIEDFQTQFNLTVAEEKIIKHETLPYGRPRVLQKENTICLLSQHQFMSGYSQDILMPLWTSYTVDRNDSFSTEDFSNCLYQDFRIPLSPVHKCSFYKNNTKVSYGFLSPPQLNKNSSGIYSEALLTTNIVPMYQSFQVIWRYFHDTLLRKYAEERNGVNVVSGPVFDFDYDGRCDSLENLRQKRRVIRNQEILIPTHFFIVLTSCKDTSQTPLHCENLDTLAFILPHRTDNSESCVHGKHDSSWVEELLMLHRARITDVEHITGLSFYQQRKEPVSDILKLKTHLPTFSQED
As to the kind of experiment: cell-based. To be noted: for inhibition at 20 µM: MDA-MB-231, read-out: % Inhibition (at 20 μM). On the procedure:
ENPP-1 were mainly expressed on the surface of cell membrane where it hydrolytes 2′3′-cGAMP to generate 5′-GMP and 5′-AMP. ENPP-1 also has the ability to hydrolyzes artificial phosphoric acid ester TMP-pNP to nucleotide-5′-monophosphate and p-nitrophcnol there, which is a chromogenic product.
8 point of different concentrations of each inhibitor were prepared with the final assay concentrations starting at 20 μM. 3× series dilution by DMEM medium without FBS was applied. Prior to adding inhibitors, 75000 cells per well were incubated at 37° C., 5% CO2 in DMEM for 24 hours. After removing the supernatant medium, 50 μL inhibitor solution was added into each well with cultured cells and incubate at 37° C., 5% CO2 for 60 minutes.
as §2

Setting [3] is: substrate TMP-pNP, 20 ng human soluble ENPP1, Tris buffer pH 9.5, read-out: TMP-pNP (IC50).

Take `COc1ccc2c(n1)nc(C)c1nc(CN(C)C)n(Cc3cc(F)c(S(N)(=O)=O)cc3F)c12` [Compound 92, 4-((2-((dimethylamino)methyl)-7-methoxy-4-methyl-1H-imidazo[4,5-c][1,8]naphthyridin-1-yl)methyl)-2,5-difluorobenzenesulfonamide]: the negative logarithm of the IC50 (pIC50) against human soluble ENPP1 [1] was 8.03; against human soluble ENPP1 [2] it was 7.54; against ENPP-1, MDA-MB-231 cells, 5.39. In addition, the inhibition at 20 µM at ENPP-1, MDA-MB-231 cells amounted to 68%.

Regarding `COCCn1c(=O)n(Cc2c(F)cc(S(N)(=O)=O)cc2F)c2c3ccc(OC)nc3ncc21` [Compound 132, 3,5-difluoro-4-((7-methoxy-3-(2-methoxyethyl)-2-oxo-2,3-dihydro-1H-imidazo[4,5-c][1,8]naphthyridin-1-yl)methyl)benzenesulfonamide], the pIC50 on human soluble ENPP1 [1] (setting [3]) was 9.48; against human soluble ENPP1 [2], 9.13. For the same compound, at ENPP-1, MDA-MB-231 cells, the inhibition at 20 µM came to 87%.

`COCc1nc2cnc3nc(OC)ccc3c2n1Cc1ccc(S(N)(=O)=O)c(F)c1` [Compound 79, 2-fluoro-4-((7-methoxy-2-(methoxymethyl)-1H-imidazo[4,5-c][1,8]naphthyridin-1-yl)methyl)benzenesulfonamide]: the pIC50 was 8.68 against human soluble ENPP1 [1]; 8.04 at human soluble ENPP1 [2]; 5.72 against ENPP-1, MDA-MB-231 cells. At ENPP-1, MDA-MB-231 cells, the inhibition at 20 µM amounted to 74%.

Turning to `COC(=O)Cc1nc2cnc3nc(OC)ccc3c2n1Cc1ccc(S(N)(=O)=O)c(F)c1` [Compound 83, methyl 2-(1-(3-fluoro-4-sulfamoylbenzyl)-7-methoxy-1H-imidazo[4,5-c][1,8]naphthyridin-2-yl)acetate], the pIC50 on human soluble ENPP1 [1] was 8.49; on human soluble ENPP1 [2] it was 8.11; against ENPP-1, MDA-MB-231 cells it was 5.92. For the same compound, the inhibition at 20 µM on ENPP-1, MDA-MB-231 cells came to 83%.

Consider `COc1ccc2c(ncc3nc(C4CNC4)n(Cc4ccc(S(N)(=O)=O)c(F)c4)c32)n1` [Compound 85, 4-((2-(azetidin-3-yl)-7-methoxy-1H-imidazo[4,5-c][1,8]naphthyridin-1-yl)methyl)-2-fluorobenzenesulfonamide], for which the pIC50 against human soluble ENPP1 [1] was 8.70; against human soluble ENPP1 [2], 8.28; on ENPP-1, MDA-MB-231 cells, 6.05. Also, on ENPP-1, MDA-MB-231 cells, the inhibition at 20 µM is 79%.

As to `COCCc1nc2c(C)nc3nc(OC)ccc3c2n1Cc1cc(F)c(S(N)(=O)=O)cc1F` [Compound 93, 2,5-difluoro-4-((7-methoxy-2-(2-methoxyethyl)-4-methyl-1H-imidazo[4,5-c][1,8]naphthyridin-1-yl)methyl)benzenesulfonamide], the pIC50 on human soluble ENPP1 [1] was 8.43; against human soluble ENPP1 [2], 7.89; against ENPP-1, MDA-MB-231 cells it was 5.66. For the same compound, the inhibition at 20 µM at ENPP-1, MDA-MB-231 cells amounted to 74%.

With `COc1ccc2c(ncc3cnn(Cc4ccc(S(N)(=O)=O)cc4)c32)n1` [Compound 116, 4-((7-methoxy-1H-pyrazolo[4,3-c][1,8]naphthyridin-1-yl)methyl)benzenesulfonamide], the pIC50 against human soluble ENPP1 [1] is 9.42; at human soluble ENPP1 [2], 8.74; at ENPP-1, MDA-MB-231 cells, 5.74. Also, the inhibition at 20 µM on ENPP-1, MDA-MB-231 cells worked out at 68%.

For `COc1ccc2c(ncc3[nH]c(=O)n(Cc4ccc(S(N)(=O)=O)c(F)c4)c32)n1` [Compound 98, 2-fluoro-4-((7-methoxy-2-oxo-2,3-dihydro-1H-imidazo[4,5-c][1,8]naphthyridin-1-yl)methyl)benzenesulfonamide], the pIC50 was 9.22 at human soluble ENPP1 [1] (setting [3]); 8.52 on human soluble ENPP1 [2]; 5.42 against ENPP-1, MDA-MB-231 cells. At ENPP-1, MDA-MB-231 cells, the inhibition at 20 µM was 62%.

For the compound `COc1ccc2c(ncc3[nH]c(=O)n(Cc4ccc(S(N)(=O)=O)cn4)c32)n1` [Compound 99, 6-((7-methoxy-2-oxo-2,3-dihydro-1H-imidazo[4,5-c][1,8]naphthyridin-1-yl)methyl)pyridine-3-sulfonamide], the pIC50 on human soluble ENPP1 [1] was 9.57; against human soluble ENPP1 [2] it was 9.10; against ENPP-1, MDA-MB-231 cells it was 6.22. The inhibition at 20 µM at ENPP-1, MDA-MB-231 cells amounted to 77%.

On to `CCC(=O)NS(=O)(=O)c1cc(F)c(Cn2c(=O)[nH]c3cnc4nc(OC)ccc4c32)c(F)c1` [Compound 105, sodium ((3,5-difluoro-4-((7-methoxy-2-oxo-2,3-dihydro-1H-imidazo[4,5-c][1,8]naphthyridin-1-yl)methyl)phenyl)sulfonyl)(propionyl)amide], for which the pIC50 on human soluble ENPP1 [1] (setting [3]) was 7.68; at human soluble ENPP1 [2], 7.72; against ENPP-1, MDA-MB-231 cells, < 5.17. At ENPP-1, MDA-MB-231 cells, the inhibition at 20 µM is 67%.

In the case of `COc1ccc2c(n1)nc(C)c1nnn(Cc3ccc(S(N)(=O)=O)cn3)c12` [Compound 136, 6-((7-methoxy-4-methyl-1H-[1,2,3]triazolo[4,5-c][1,8]naphthyridin-1-yl)methyl)pyridine-3-sulfonamide], the pIC50 at human soluble ENPP1 [1] was 8.13; on human soluble ENPP1 [2], 7.68; against ENPP-1, MDA-MB-231 cells, 9.51. Also, the inhibition at 20 µM at ENPP-1, MDA-MB-231 cells was 80%.

Take `COc1ccc2c(n1)nc(C)c1[nH]c(=O)n(Cc3c(F)cc(S(N)(=O)=O)cc3F)c12` [Compound 113, 3,5-difluoro-4-((7-methoxy-4-methyl-2-oxo-2,3-dihydro-1H-imidazo[4,5-c][1,8]naphthyridin-1-yl)methyl)benzenesulfonamide]: the pIC50 on human soluble ENPP1 [1] (setting [3]) is 8.96; at human soluble ENPP1 [2], 8.30; on ENPP-1, MDA-MB-231 cells, 6.60. For the same compound, on ENPP-1, MDA-MB-231 cells, the inhibition at 20 µM is 72%.

For the compound `COc1ccc2c(ncc3[nH]c(=O)n(Cc4ccc(S(N)(=O)=O)nc4)c32)n1` [Compound 96, 5-((7-methoxy-2-oxo-2,3-dihydro-1H-imidazo[4,5-c][1,8]naphthyridin-1-yl)methyl)pyridine-2-sulfonamide], the pIC50 at human soluble ENPP1 [1] (setting [3]) is 8.77; at human soluble ENPP1 [2] it was 8.27; against ENPP-1, MDA-MB-231 cells it was 4.96. Also, the inhibition at 20 µM on ENPP-1, MDA-MB-231 cells turned out to be 57%.
